A short description of this series: Particle size distribution of insulin and/or L-arginine solutions by photon correlation spectroscopy (Malvern Zetasizer Nano-ZS). The class given is physicochemical. Conditions: for Median particle size D(i), Stability in form of particle size / Median particle size D(i): by intensity; for Median particle size D(i), Stability in form of particle size / Median particle size D(i) / Median particle size (n, 0.5) D(n), Stability in form of particle size / Median particle size (n, 0.5) D(n): unit nm; for Median particle size (n, 0.5) D(n), Stability in form of particle size / Median particle size (n, 0.5) D(n): by number. The method, then:
Determination of the particle size distribution of Insulin and/or L-arginine by number as D (n, 0.5) and by intensity as D (i, 0.5) using nanosizer
The particle size distribution of two separate solutions of insulin (1 U/ml) prepared using 0.1 M HCl and L-arginine (1 mg/ml) prepared in distilled water was determined. In addition, a mixture of particles prepared by mixing insulin and L-arginine previous solutions in 1:1 v/v ratio was assessed by photon correlation spectroscopy using a Malvern Zetasizer Nano-ZS series (Malvern Instruments, UK). Collective 10 readings were performed three times on a sample at 25 °C with a detection angle of 173°. The median and standard deviations were calculated by the instrument. The viscosity was determined using a Vibro viscometer (SV-10, A&D Company, Japan) at 25°C.

[1] abbreviates: Table 1 (by number), Room temp for 24 hr.
Setting [2] is: Table 1 (by number), stability at 50°C for 2 hrs.
[3] abbreviates: Table 1 (by number), stability at 50 °C for 24 hrs.
The mark [4] stands for this setting: Table 2 (by intensity), Room temp for 24 hr.
Setting [5] is: Table 2 (by intensity), stability at 50 °C for 2 hrs.
The mark [6] stands for this setting: Table 2 (by intensity), stability at 50°C for 24 hrs.

Regarding `N=C(N)NCCC[C@H](N)C(=O)O` [L-arginine (1 mg/ml), L-arginine], the Pdl reads like this: under setting [1], 0.474; under setting [2], 0.517; under setting [3], 0.31; under setting [4], 0.474; under setting [5], 0.517; under setting [6], 0.31. For the same compound, the “Median particle size D(i), Stability in form of particle size” value is given as 115 nm (50 °C for 2 hrs) and 148 nm (50°C for 24 hrs). Further, the “Median particle size D(i)” value (Room temp for 24 hr) came out at 122 nm. Besides, the “Median particle size (n, 0.5) D(n), Stability in form of particle size” value by setting is: (50°C for 2 hrs) 102 nm; (50 °C for 24 hrs) 93.8 nm. Further, the “Median particle size (n, 0.5) D(n)” value (Room temp for 24 hr) was found to be 74.8 nm. In addition, under “in the aqueous solution”, the particle size is listed as 100-150 nm.
Compound `N=C(N)NCCC[C@H](N)C(=O)O` [L-arginine (10mg/ml), L-arginine] registered a Pdl under setting [1] of 0.442; a Pdl under setting [2] of 0.522; a Pdl under setting [3] of 0.436; a Pdl under setting [4] of 0.442; a Pdl under setting [5] of 0.522; a Pdl under setting [6] of 0.436. The “Median particle size D(i), Stability in form of particle size” value reads like this: (50 °C for 2 hrs) 174 nm; (50°C for 24 hrs) 126 nm. In addition, the “Median particle size D(i)” value (Room temp for 24 hr) was found to be 129 nm. The “Median particle size (n, 0.5) D(n), Stability in form of particle size” value is, setting by setting: (50°C for 2 hrs) 85.8 nm; (50 °C for 24 hrs) 80.6 nm. In addition, under “Room temp for 24 hr”, the “Median particle size (n, 0.5) D(n)” value came to 109 nm.

The record behind these values is EP2653156A1, “Pharmaceutical emulsion composition and use thereof” (College of Pharmacy of Taif University, priority 2012, dated 2013).
